Experiments:
[1] = system: RSV B Washington strain; experiment: Assessment of RSV induced CPE in HEp2 cells (RSV B Washington strain); type: cell-based; settings: human respiratory syncytial virus, HEp2 cells; for IC50: HEp-2, 144 h, 1 MOI, 6 days, read-out: RSV B CPE IC50; for inhibition at 1 µg/mL / inhibition at 0.1 µg/mL: HEp-2; for inhibition at 1 µg/mL: Inhibition (%) at 1 μg/mL, read-out: RSV B CPE % Inhibition; for inhibition at 0.1 µg/mL: Inhibition (%) at 0.1 μg/mL
Procedure, shortened: (§1)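 HEp2 cells were infected at MOI 1 with RSV A2 or RSV B Washington, with compound added at the same time (0.5% DMSO final). Incubation was 5 days for A2 and 6 days for B, then viability was read by resazurin fluorescence (545/590 nm) after 6 h. IC50, IC75 and IC90 came from concentration-response curves.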

[2] = system: RSV A2 F-protein expression in BEAS2B bronchial epithelial cells; experiment: Assessment of RSV F protein expression in BEAS2B bronchial epithelial cells; type: cell-based; settings: human respiratory syncytial virus, BEAS-2B, 72 h, read-out: RSV A2 F-protein IC50 (nM)
Description: Assessment of RSV F Protein Expression in BEAS2B Bronchial Epithelial Cells
An early event which follows the infection of epithelial cells by RSV is the expression of RSV F-protein on the cells' surface. BEAS2B cells (SV40-immortalised human bronchial epithelial cell line) were grown in 96 well plates. Once more than 70% confluent, cells were infected with RSV A2 (#0709161v, NCPV, Public Health England, Wiltshire) at an MOI of 0.01 in clear RPMI-1640 medium (Life technologies, Paisley, UK) with 2% FBS (Life technologies, Paisley, UK), and incubated for 3 days (37° C./5% CO2).
Supernatant was aspirated and the cells were fixed with 4% formaldehyde (100 μL in PBS solution) for 20 min, washed 3 times with washing buffer (200 μL; PBS containing 0.05% Tween-20) and incubated with blocking solution (100 μL; 5% Marvel milk in PBS) for 1 hr. Cells were then washed with washing buffer (200 μL) and incubated for 1 hr at 37° C. with anti-RSV (2F7; mouse monoclonal, lot 160290, Cat. No. ab43812, Abcam plc, Cambridge, UK) F-fusion protein antibody (50 μL; prepared at a 1:1000 dilution in 5% milk/PBS-tween). After washing, cells were incubated with an HRP-conjugated anti-mouse IgG antibody (50 μL prepared at a 1:2000 dilution in 5% milk in PBS; lot 00095437, Cat.No. P0447, Dako UK Ltd, Cambridgeshire, UK) for 1 hr. Cells were washed twice with washing buffer and once with PBS. TMB substrate (100 μL; substrate reagent pack lot 320436, Cat. No. DY999, R&D Systems, Inc. Abingdon, UK) was then added and the reaction was stopped by the addition of aq sulfuric acid (50 μL; 2N). The resultant signal was determined colourimetrically (OD: 450 nm with a reference wavelength of 655 nm) in a microplate reader (Multiskan FC®, ThermoFisher Scientific). Cells were then washed and 1% crystal violet solution (50 μL; lot SLB4576, Cat. No. HT90132-1L, Sigma-Aldrich) was applied for 30 min. After washing with PBS (200 μL) 3 times, 1% SDS (100 μL) was added to each well, and plates were shaken lightly for 1 hr prior to reading the absorbance at 595 nm. The measured OD450-655 readings were corrected for cell number by dividing the OD450-655 by the OD595 readings. The percentage inhibition for each well was calculated and the IC50 value derived from the concentration-response curve generated for each test compound.

[3] = Cell viability: resazurin assay; type: cell-based, human; settings: human, HEp2 cells
Procedure, shortened: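 Viability read-out: resazurin fluorescence (ex 545, em 590 nm) after 6 h, following 5-day compound incubation of HEp2 cells (37 °C, 5% CO2, 5% FBS, 0.5% DMSO final). Loss expressed as percentage of vehicle, negative if viability rose; CC50 derived from concentration-response curve where appropriate.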

[4] = system: RSV A2 strain; experiment: Assessment of RSV induced CPE in HEp2 cells (RSV A2 strain); type: cell-based; settings: human respiratory syncytial virus, HEp2 cells; for IC50: HEp-2, 120 h, 1 MOI, 5 days, read-out: RSV A2 CPE IC50; for inhibition at 0.1 µg/mL / inhibition at 0.01 µg/mL: HEp-2; for inhibition at 0.1 µg/mL: Inhibition (%) at 0.1 μg/mL, read-out: RSV A2 CPE % Inhibition; for inhibition at 0.01 µg/mL: Inhibition (%) at 0.01 μg/mL
Procedure, shortened: as §1

Row | SMILES | IC50 [1] | inhibition at 1 µg/mL [1] | IC50 [2] | CC50 at 5 days [3] | IC50 [4] | inhibition at 0.1 µg/mL [4] | inhibition at 0.1 µg/mL [1] | inhibition at 0.01 µg/mL [4]
1 | O=C(Nc1ccccc1F)c1cc2c(s1)-c1ccccc1N(C(=O)c1ccc(NC(=O)c3cccnc3N3CC4(CCOCC4)C3)cc1)CC2 [Example 15, 6-(4-(2-(7-oxa-2-azaspiro[3.5]nonan-2-yl)nicotinamido)benzoyl)-N-(2-fluorophenyl)-5,6-dihydro-4H-benzo[b]thieno [2,3-d]azepine-2-carboxamide] | 20.4 nM | 85% | 0.36 nM | > 14500 nM | 0.4 nM | 100% | – | –
2 | Cc1cnc(N2CC3(CCOCC3)C2)c(C(=O)Nc2ccc(C(=O)N3CCc4cc(C(=O)Nc5ccccc5F)sc4-c4ccccc43)cc2)c1 [Example 33, N-(2-fluorophenyl)-6-(4-(5-methyl-2-(7-oxa-2-azaspiro [3.5]nonan-2-yl)nicotinamido)benzoyl)-5,6-dihydro-4H-benzo[b]thieno[2,3-d]azepine-2-carboxamide] | 9.7 nM | 74% | 0.19 nM | > 14200 nM | < 0.014 nM | 100% | – | –
3 | Cc1cccc(F)c1NC(=O)c1cc2c(s1)-c1ccccc1N(C(=O)c1ccc(NC(=O)c3cc4ccccc4nc3N3CC4(CCOCC4)C3)cc1)CC2 [Example 10, 6-(4-(2-(7-Oxa-2-azaspiro[3.5]nonan-2-yl)quinoline-3-carboxamido)benzoyl)-N-(2-fluoro-6-methylphenyl)-5,6-dihydro-4H-benzo[b]thieno[2,3-d]azepine-2-carboxamide] | 1.5 nM | – | 0.48 nM | > 13300 nM | 0.11 nM | 100% | 100% | –
4 | O=C(Nc1ccc(F)cc1Cl)c1cc2c(s1)-c1ccccc1N(C(=O)c1ccc(NC(=O)c3cccnc3N3CC4(CCOCC4)C3)cc1)CC2 [Example 27, 6-(4-(2-(7-oxa-2-azaspiro[3.5]nonan-2-yl)nicotinamido)benzoyl)-N-(2-chloro-4-fluorophenyl)-5,6-dihydro-4H-benzo [b]thieno[2,3-d]azepine-2-carboxamide] | 37.4 nM | 100% | 0.51 nM | > 13800 nM | 0.17 nM | 100% | – | –
5 | O=C(Nc1c(F)cccc1Cl)c1cc2c(s1)-c1ccccc1N(C(=O)c1ccc(NC(=O)c3cc4c(nc3N3CC5(CCOCC5)C3)CCC4)cc1)CC2 [Example 76, 6-(4-(2-(7-oxa-2-azaspiro[3.5]nonan-2-yl)-6,7-dihydro-5H-cyclopenta[b]pyridine-3-carboxamido)benzoyl)-N-(2-chloro-6-fluorophenyl)-5,6-dihydro-4H-benzo[b]thieno[2,3-d] azepine-2-carboxamide] | 1.4 nM | 100% | 0.32 nM | > 13100 nM | 0.15 nM | – | – | 100%
6 | O=C(Nc1c(F)cccc1F)c1cc2c(s1)-c1ccccc1N(C(=O)c1ccc(NC(=O)c3cccnc3N3CC4(CCOCC4)C3)cc1F)CC2 [Example 30, 6-(4-(2-(7-oxa-2-azaspiro[3.5]nonan-2-yl)nicotinamido)-2-fluorobenzoyl)-N-(2,6-difluorophenyl)-5,6-dihydro-4H-benzo[b]thieno[2,3-d]azepine-2-carboxamide] | 27.3 nM | 94% | 0.27 nM | > 13800 nM | 0.12 nM | 100% | – | –
7 | O=C(Nc1c(F)cccc1Cl)c1cc2c(s1)-c1ccccc1N(C(=O)c1ccc(NC(=O)c3cccnc3N3CC4(CCOCC4)C3)cc1)CC2 [Example 26, 6-(4-(2-(7-oxa-2-azaspiro[3.5]nonan-2-yl)nicotinamido)benzoyl)-N-(2-chloro-6-fluorophenyl)-5,6-dihydro-4H-benzo[b]thieno[2,3-d]azepine-2-carboxamide] | 9.3 nM | 73% | 0.14 nM | > 13800 nM | 0.12 nM | 95% | – | –
8 | O=C(Nc1c(F)cccc1Cl)c1cc2c(s1)-c1ccccc1N(C(=O)c1ccc(NC(=O)c3cc(C4CC4)cnc3N3CC4(CCOCC4)C3)cc1)CC2 [Example 65, N-(2-chloro-6-fluorophenyl)-6-(4-(5-cyclopropyl-2-(7-oxa-2-azaspiro[3.5]nonan-2-yl)nicotinamido)benzoyl)-5,6-dihydro-4H-benzo[b]thieno[2,3-d]azepine-2-carboxamide] | 1.6 nM | 100% | 0.59 nM | > 13100 nM | 0.13 nM | – | – | 100%
9 | Cc1cccc(F)c1NC(=O)c1cc2c(s1)-c1ccccc1N(C(=O)c1ccc(NC(=O)c3cc4c(nc3N3CC5(CCOCC5)C3)CCCC4)cc1)CC2 [Example 9, 6-(4-(2-(7-Oxa-2-azaspiro[3.5]nonan-2-yl)-5,6,7,8-tetrahydroquinoline-3-carboxamido)benzoyl)-N-(2-fluoro-6-methylphenyl)-5,6-dihydro-4H-benzo[b]thieno[2,3-d]azepine-2-carboxamide] | 1.4 nM | – | 0.034 nM | 12500 nM | 0.39 nM | – | 100% | 92%
10 | O=C(Nc1ccccc1Cl)c1cc2c(s1)-c1ccccc1N(C(=O)c1ccc(NC(=O)c3cccnc3N3CC4(CCOCC4)C3)cc1)CC2 [Example 16, 6-(4-(2-(7-oxa-2-azaspiro[3.5]nonan-2-yl)nicotinamido)benzoyl)-N-(2-chlorophenyl)-5,6-dihydro-4H-benzo[b]thieno [2,3-d]azepine-2-carboxamide] | 142 nM | 63% | 0.93 nM | > 14200 nM | 0.76 nM | 100% | – | –
11 | O=C(Nc1c(F)cccc1F)c1cc2c(s1)-c1ccccc1N(C(=O)c1ccc(NC(=O)c3cc(C4CC4)cnc3N3CC4(CCOCC4)C3)cc1)CC2 [Example 72, 6-(4-(5-cyclopropyl-2-(7-oxa-2-azaspiro[3.5]nonan-2-yl)nicotinamido)benzoyl)-N-(2,6-difluorophenyl)-5,6-dihydro-4H-benzo[b]thieno[2,3-d]azepine-2-carboxamide] | 3.3 nM | 89% | – | > 13400 nM | 0.32 nM | – | – | 100%
12 | Cc1cnc(N2CC3(CCOCC3)C2)c(C(=O)Nc2ccc(C(=O)N3CCc4cc(C(=O)Nc5c(F)cccc5C(F)(F)F)sc4-c4ccccc43)cc2)c1 [Example 63, N-(2-fluoro-6-(trifluoromethyl)phenyl)-6-(4-(5-methyl-2-(7-oxa-2-azaspiro[3.5]nonan-2-yl)nicotinamido)benzoyl)-5,6-dihydro-4H-benzo[b]thieno[2,3-d]azepine-2-carboxamide] | 1.6 nM | 100% | – | > 13000 nM | 0.058 nM | – | – | 95%
13 | Cc1ccc(C(=O)Nc2ccc(C(=O)N3CCc4cc(C(=O)Nc5c(C)cccc5F)sc4-c4ccccc43)cc2)c(N2CC3(CCOCC3)C2)n1 [Example 40, N-(2-fluoro-6-methylphenyl)-6-(4-(6-methyl-2-(7-oxa-2-azaspiro[3.5]nonan-2-yl)nicotinamido)benzoyl)-5,6-dihydro-4H-benzo[b]thieno[2,3-d]azepine-2-carboxamide] | 41.3 nM | 80% | – | > 14000 nM | 0.15 nM | 100% | – | –
